Laboratory results from patent US7056679B2, “Target specific screening and its use for identifying target binders” (Antyra, Inc., priority 2001, dated 2006).

What was measured:
E-tag antibody = experiment: ELISA analysis of phage on antibody raised against ETAG (positive control); conditions: peptide binding to E-tag antibody; phage ELISA units read at 405 nm
How it was run: (§1)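 Phage from picked clones (M13KO7 helper) bound 2 hr at room temperature to wells coated overnight at 4 °C with 500 ng/well anti-ETAG antibody or LDH, milk-blocked. Detection with HRP-anti-M13 (1:3000) and ABTS at 405 nm; positive when A405 ≥2-fold over background.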

DGI-2 = molecular target: T1, DGI-2 (Homo sapiens, UniProt Q15004); experiment: ELISA analysis of phage on DGI-2 polypeptide (specific binding); conditions: for DGI-2 (OD): binding to DGI-2 polypeptide (specific binding), phage ELISA units read at 405 nm; for DGI-2/LDH (OD): ratio of specific binding to non-specific binding
T1 construct: encompassed the entire DGI-2 open reading frame (ORF); His-tag of vector pIVEX2.3-MCS (inferred from the vector and from the reverse primer lacking a stop codon); made in house; host or cells: cell-free in vitro translation (Rapid Translation System RTS, Roche; E. coli lysate)
T1 sequence (Q15004 1-111): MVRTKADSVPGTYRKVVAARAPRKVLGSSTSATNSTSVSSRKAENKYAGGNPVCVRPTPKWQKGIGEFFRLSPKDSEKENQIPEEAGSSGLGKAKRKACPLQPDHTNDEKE
How it was run: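 Recombinant DGI-2 from in vitro translation, LDH (non-specific) and controls were coated at 500 ng/well and blocked with 2% milk-PBS. Phage from individual clones bound for 2 hr at room temperature, then anti-M13-HRP with ABTS was read at 405 nm; a clone counted as positive at ≥2-fold over background.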

[1] = tested on: lactate dehydrogenase (LDH); experiment: ELISA analysis of phage on LDH (irrelevant, non-specific target); assay type: binding; conditions: peptide binding to LDH polypeptide (non-specific binding); phage ELISA units read at 405 nm
How it was run: as §1

Sequence: MGADTCMGGKMPFDQMFGAV (DGI-2-20F-PP-E10; listed as Escherichia coli)
- ETAG (OD) (E-tag antibody): 44.6 OD
- DGI-2 (OD) (DGI-2): 2.0 OD
- DGI-2/LDH (OD) (DGI-2): 1.7
- LDH (OD) [1]: 1.2 OD

Sequence: MGQGFHYNRQPYMSHQCYAFTFSTPFLDGDRIPHGVSRGL (DGI-2-40F-3-D1; listed as Escherichia coli)
- ETAG (OD) (E-tag antibody): 4.1 OD
- DGI-2 (OD) (DGI-2): 0.8 OD
- DGI-2/LDH (OD) (DGI-2): 1.0
- LDH (OD) [1]: 0.8 OD

Sequence: MGSLGPFGNTNSLASGIGSVRNRPLLPLHGSP [DGI-2-40F-3-D72]
- ETAG (OD) (E-tag antibody): 14.0 OD
- DGI-2 (OD) (DGI-2): 3.1 OD
- DGI-2/LDH (OD) (DGI-2): 2.8
- LDH (OD) [1]: 1.1 OD

Sequence: MGVVLECEGGWSIPGQTCYF (DGI-2-20R-3-C7; listed as Escherichia coli)
- ETAG (OD) (E-tag antibody): 18.0 OD
- DGI-2 (OD) (DGI-2): 5.1 OD
- DGI-2/LDH (OD) (DGI-2): 5.1
- LDH (OD) [1]: 1.0 OD

Sequence: MQAASTLSTYMGAIRMGYPILHWDRGGVQRVDPGLYRGRV (DGI-2-40F-3-B10; listed as Escherichia coli)
- ETAG (OD) (E-tag antibody): 4.8 OD
- DGI-2 (OD) (DGI-2): 1.3 OD
- DGI-2/LDH (OD) (DGI-2): 1.4
- LDH (OD) [1]: 1.0 OD

Sequence: MSSTAWTDRILQRGIGLGPV (DGI-2-20R-4-F1212; listed as Escherichia coli)
- ETAG (OD) (E-tag antibody): 9.8 OD
- DGI-2 (OD) (DGI-2): 4.0 OD
- DGI-2/LDH (OD) (DGI-2): 3.3
- LDH (OD) [1]: 1.2 OD

Sequence: MSTLQGPGHLFQMLRRASLG (DGI-2-20R-4-H12; listed as Escherichia coli)
- ETAG (OD) (E-tag antibody): 10.9 OD
- DGI-2 (OD) (DGI-2): 3.7 OD
- DGI-2/LDH (OD) (DGI-2): 2.8
- LDH (OD) [1]: 1.3 OD

Sequence: PAMGHCMQVLGPVLEGRSRDQVGR (DGI-2-20R-4-G6; listed as Escherichia coli)
- ETAG (OD) (E-tag antibody): 11.5 OD
- DGI-2 (OD) (DGI-2): 1.6 OD
- DGI-2/LDH (OD) (DGI-2): 1.4
- LDH (OD) [1]: 1.1 OD

Sequence: PKDGAAFKGSDFIQGGQTVMERAPALWWRDGGGQWEAPST (DGI-2-40F-3-B72; listed as Escherichia coli)
- ETAG (OD) (E-tag antibody): 10.4 OD
- DGI-2 (OD) (DGI-2): 1.0 OD
- DGI-2/LDH (OD) (DGI-2): 1.3
- LDH (OD) [1]: 0.7 OD

Sequence: PVYRVAMCRISVGCSAGAWF (DGI-2-20F-PP-C12; listed as Escherichia coli)
- ETAG (OD) (E-tag antibody): 36.4 OD
- DGI-2 (OD) (DGI-2): 2.5 OD
- DGI-2/LDH (OD) (DGI-2): 2.9
- LDH (OD) [1]: 0.9 OD

Sequence: QGSAHVVRPPGVYDVPWKVGMFFHPQNWPNSWGRAYFRSG (DGI-2-40F-3-D12; listed as Escherichia coli)
- ETAG (OD) (E-tag antibody): 7.3 OD
- DGI-2 (OD) (DGI-2): 2.3 OD
- DGI-2/LDH (OD) (DGI-2): 2.5
- LDH (OD) [1]: 1.0 OD

Sequence: QLDCLVWGLPGLRCDRPLEQ (DGI-2-20R-3-B10; listed as Escherichia coli)
- ETAG (OD) (E-tag antibody): 17.0 OD
- DGI-2 (OD) (DGI-2): 7.8 OD
- DGI-2/LDH (OD) (DGI-2): 7.6
- LDH (OD) [1]: 1.0 OD

Sequence: QMIFSKGNWLAHPEGGVALGLSRESQLFRSCREFGYCMGPM [DGI-2-40F-3-C6]
- ETAG (OD) (E-tag antibody): 10.1 OD
- DGI-2 (OD) (DGI-2): 2.3 OD
- DGI-2/LDH (OD) (DGI-2): 2.8
- LDH (OD) [1]: 0.8 OD

Sequence: QMSRVAFSPGESWRRWVEGV (DGI-2-20R-3-A2; listed as Escherichia coli)
- ETAG (OD) (E-tag antibody): 14.2 OD
- DGI-2 (OD) (DGI-2): 7.5 OD
- DGI-2/LDH (OD) (DGI-2): 7.5
- LDH (OD) [1]: 1.0 OD
